According to PMC3914206:

Legend:
panel of 442 kinases [1] = target: T1, panel of 442 kinases (Homo sapiens, UniProt O00329); assay type: binding; conditions: Compound Concentration 10 µM
T1 construct: purchased KINOMEscan
T1 sequence (O00329 1-1044): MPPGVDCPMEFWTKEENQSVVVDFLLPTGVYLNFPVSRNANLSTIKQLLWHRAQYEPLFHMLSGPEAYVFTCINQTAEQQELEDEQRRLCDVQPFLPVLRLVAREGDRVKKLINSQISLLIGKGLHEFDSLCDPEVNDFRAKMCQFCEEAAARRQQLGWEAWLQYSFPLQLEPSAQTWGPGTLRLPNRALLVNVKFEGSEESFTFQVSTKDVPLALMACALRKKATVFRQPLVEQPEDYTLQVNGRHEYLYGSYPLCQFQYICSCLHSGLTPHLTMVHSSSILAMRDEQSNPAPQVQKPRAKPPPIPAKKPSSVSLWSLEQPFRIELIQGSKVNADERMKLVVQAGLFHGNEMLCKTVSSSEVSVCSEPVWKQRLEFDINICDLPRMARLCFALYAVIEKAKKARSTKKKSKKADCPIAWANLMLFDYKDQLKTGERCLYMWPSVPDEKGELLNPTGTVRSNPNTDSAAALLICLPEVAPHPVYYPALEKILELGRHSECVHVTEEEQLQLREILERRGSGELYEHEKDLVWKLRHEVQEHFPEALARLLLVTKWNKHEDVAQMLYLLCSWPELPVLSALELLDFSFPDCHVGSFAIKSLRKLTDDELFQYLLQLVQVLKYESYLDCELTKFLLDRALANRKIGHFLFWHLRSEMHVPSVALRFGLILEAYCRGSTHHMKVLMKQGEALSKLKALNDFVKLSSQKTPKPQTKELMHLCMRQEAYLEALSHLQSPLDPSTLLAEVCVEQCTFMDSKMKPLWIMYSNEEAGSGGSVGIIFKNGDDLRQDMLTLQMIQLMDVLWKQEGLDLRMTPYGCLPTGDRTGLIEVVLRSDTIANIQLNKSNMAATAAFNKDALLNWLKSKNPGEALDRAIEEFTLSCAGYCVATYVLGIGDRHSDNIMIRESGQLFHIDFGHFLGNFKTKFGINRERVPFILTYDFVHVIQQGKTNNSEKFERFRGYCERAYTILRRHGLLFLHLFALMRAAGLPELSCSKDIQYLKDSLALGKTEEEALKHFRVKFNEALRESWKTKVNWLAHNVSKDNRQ
Text: (§1) We assessed the selectivity of members of this scaffold using the KINOMEscan methodology across a near comprehensive panel of 442 kinases [[18,27]].

panel of 442 kinases [2] = target: T2, panel of 442 kinases (Homo sapiens, UniProt Q9P2K8, S808G); assay type: binding; conditions: Compound Concentration 10 µM
T2 construct: purchased KINOMEscan
T2 sequence (Q9P2K8 whole entry S808G): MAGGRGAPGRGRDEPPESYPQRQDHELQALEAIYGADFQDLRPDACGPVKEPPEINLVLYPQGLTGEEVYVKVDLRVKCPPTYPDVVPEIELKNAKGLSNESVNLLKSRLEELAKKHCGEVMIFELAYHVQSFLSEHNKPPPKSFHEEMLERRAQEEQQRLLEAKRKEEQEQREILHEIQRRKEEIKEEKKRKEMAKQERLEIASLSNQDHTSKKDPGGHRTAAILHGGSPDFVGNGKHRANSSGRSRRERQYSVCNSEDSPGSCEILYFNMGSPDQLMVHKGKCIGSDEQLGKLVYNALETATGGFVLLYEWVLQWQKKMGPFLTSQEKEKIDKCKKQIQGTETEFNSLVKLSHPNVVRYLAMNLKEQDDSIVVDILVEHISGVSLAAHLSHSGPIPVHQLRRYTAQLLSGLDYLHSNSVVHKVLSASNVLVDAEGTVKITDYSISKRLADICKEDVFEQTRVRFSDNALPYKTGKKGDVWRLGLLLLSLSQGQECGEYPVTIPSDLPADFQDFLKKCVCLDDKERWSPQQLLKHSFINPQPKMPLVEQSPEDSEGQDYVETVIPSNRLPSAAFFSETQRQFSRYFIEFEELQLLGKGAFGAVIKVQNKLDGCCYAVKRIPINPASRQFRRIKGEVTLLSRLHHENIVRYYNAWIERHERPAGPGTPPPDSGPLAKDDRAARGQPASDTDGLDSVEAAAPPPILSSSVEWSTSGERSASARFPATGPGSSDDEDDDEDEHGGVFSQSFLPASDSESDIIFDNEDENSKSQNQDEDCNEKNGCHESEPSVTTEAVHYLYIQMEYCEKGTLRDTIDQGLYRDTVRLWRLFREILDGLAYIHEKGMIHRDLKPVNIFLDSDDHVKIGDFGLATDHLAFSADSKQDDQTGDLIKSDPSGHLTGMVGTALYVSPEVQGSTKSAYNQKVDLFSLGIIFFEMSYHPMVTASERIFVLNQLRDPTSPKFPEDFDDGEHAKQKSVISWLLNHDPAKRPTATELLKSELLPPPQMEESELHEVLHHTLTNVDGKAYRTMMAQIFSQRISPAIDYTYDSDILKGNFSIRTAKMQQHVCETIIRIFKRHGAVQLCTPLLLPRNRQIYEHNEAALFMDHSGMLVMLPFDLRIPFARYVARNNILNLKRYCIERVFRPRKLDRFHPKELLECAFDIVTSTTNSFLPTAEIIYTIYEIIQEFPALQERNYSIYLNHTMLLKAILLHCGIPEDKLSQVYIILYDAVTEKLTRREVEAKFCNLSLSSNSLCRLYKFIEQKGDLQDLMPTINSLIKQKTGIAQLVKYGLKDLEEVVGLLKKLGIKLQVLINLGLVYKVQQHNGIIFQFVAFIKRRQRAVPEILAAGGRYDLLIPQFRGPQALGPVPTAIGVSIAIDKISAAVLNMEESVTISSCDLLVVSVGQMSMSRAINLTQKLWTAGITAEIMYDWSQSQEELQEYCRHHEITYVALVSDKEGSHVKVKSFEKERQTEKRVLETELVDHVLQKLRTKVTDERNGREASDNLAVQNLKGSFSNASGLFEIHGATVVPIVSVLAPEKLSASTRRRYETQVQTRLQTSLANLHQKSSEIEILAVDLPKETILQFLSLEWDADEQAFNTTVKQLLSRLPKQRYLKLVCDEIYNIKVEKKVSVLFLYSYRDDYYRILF
Text: as §1

Structure (SMILES)	KINOMEscan: PIK3CD (panel of 442 kinases [1])	KINOMEscan: GCN2(Kin.Dom.2,S808G) (panel of 442 kinases [2])
COc1cc(C(=O)N2CCC(N3CCN(C)CC3)CC2)ccc1Nc1ncc2c(n1)N(C)c1ccccc1C(=O)N2C [15 (LRRK2-IN-1)]	62	95
COc1cc(C(=O)N2CCC(N3CCN(C)CC3)CC2)ccc1Nc1ncc2c(n1)N1CCc3cccc(c31)C(=O)N2C [Compound 24]		79
COc1cc(C(=O)N2CCC(N3CCN(C)CC3)CC2)ccc1Nc1ncc2c(n1)N(C1CCCC1)c1ccccc1C(=O)N2C [Compound 25, 11-cyclopentyl-2-((2-methoxy-4-(4-(4-methylpiperazin-1-yl)piperidine-1-carbonyl)phenyl)amino)-5-methyl-5H-benzo[e]pyrimido[5,4-b][1,4]diazepin-6(11H)-one]	100	100
CCOc1cc(C(=O)N2CCC(N3CCN(C)CC3)CC2)ccc1Nc1ncc2c(n1)N(C1CCCC1)c1ccccc1C(=O)N2C [Compound 26]	91	95
